Measured values taken from ChEMBL document CHEMBL1151103, “Studies on cytotoxic constituents in pericarps of Mallotus japonicus, Part III” (1988).
Values after ≈ are worked out from the molar mass of the structure shown.

System: KB
Test: Cytotoxicity against human KB cells
Format: functional
Details: read-out: ED50 (the source's name)

| Structure (SMILES) | EC50 [µg/mL] |
| --- | --- |
| COc1c(C)c(O)c(C(C)=O)c(O)c1Cc1c(O)c2c(c(C(=O)C(C)C)c1O)OC(C)(C)C=C2 [ISOBUTYRYLMALLOTOCHROMENE] | 0.4 (≈ 0.85 µM) |
| CCCC(=O)c1c2c(c(OC(C)=O)c(Cc3c(OC)c(C)c(OC(C)=O)c(C(C)=O)c3OC(C)=O)c1OC(C)=O)C=CC(C)(C)O2 | 2.55 (≈ 3.99 µM) |
| CCCC(=O)c1c(O)c(Cc2c(OC)c(C)c(O)c(C(C)=O)c2OC)c(OC)c2c1OC(C)(C)C=C2 | 5.9 (≈ 11.8 µM) |
| COc1c(C)c(OC(C)=O)c(C(C)=O)c(OC(C)=O)c1Cc1c(OC(C)=O)c2c(c(C(=O)C(C)C)c1OC(C)=O)OC(C)(C)C=C2 | 2.65 (≈ 4.15 µM) |
| CCCC(=O)c1c(O)c(Cc2c(O)c(C(C)=O)c(O)c(C)c2OC)c(O)c2c1OC(C)(C)C=C2 [BUTYRYLMALLOTOCHROMENE] | 3.3 (≈ 7.01 µM) |
| COc1c(C)c(O)c(C(C)=O)c(OC)c1Cc1c(O)c(C(=O)C(C)C)c2c(c1OC)C=CC(C)(C)O2 | 5.5 (≈ 11 µM) |
